In patent publication US10214508B2, “Nitrogen-containing heterocyclic compound” (Takeda Pharmaceutical Company Limited, priority 2014, dated 2019):

Columns and labels:
[1] = target: T1, human M1 receptor (hCHRM1) (Homo sapiens, UniProt P11229); experiment: Measurement of M1 receptor positive allosteric modulator (M1PAM) activity, calcium fluorescence (FLIPRtetra); format: cell-based; conditions: 10 μM test compound with acetylcholine at EC20 (final 0.6-0.8 nM); 100% = acetylcholine 1 μM, 0% = DMSO; CHO-K1 cells expressing hCHRM1
T1 construct: expressed in transfected cells
T1 sequence (P11229 1-460): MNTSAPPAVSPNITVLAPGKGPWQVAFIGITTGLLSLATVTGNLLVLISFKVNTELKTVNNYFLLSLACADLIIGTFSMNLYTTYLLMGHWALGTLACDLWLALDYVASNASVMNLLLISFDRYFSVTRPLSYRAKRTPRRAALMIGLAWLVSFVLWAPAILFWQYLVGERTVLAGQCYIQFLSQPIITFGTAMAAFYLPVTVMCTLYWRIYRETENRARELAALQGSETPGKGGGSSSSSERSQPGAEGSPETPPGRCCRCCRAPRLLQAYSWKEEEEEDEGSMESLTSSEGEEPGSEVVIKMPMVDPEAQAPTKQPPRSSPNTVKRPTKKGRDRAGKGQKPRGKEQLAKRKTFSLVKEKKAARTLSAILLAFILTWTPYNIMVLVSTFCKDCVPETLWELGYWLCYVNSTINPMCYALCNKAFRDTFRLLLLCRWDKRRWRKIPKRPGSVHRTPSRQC
Method in brief: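 CHO-K1 cells stably expressing hM1 were Fluo-4-loaded; compound added with acetylcholine at EC20 (0.6-0.8 nM final), calcium fluorescence read 1 min on FLIPRtetra. Activity scaled between DMSO (0%) and 1 μM acetylcholine (100%); inflection point of concentration–response reported as IP.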

IP1 production = experiment: Measurement of myo-inositol 1 phosphate (IP1) in hippocampi after oral administration; format: in vivo, male Long-Evans rats; conditions: rat hippocampus, relative to Vehicle administration group as 100%
Experimental: Measurement of Myo-Inositol 1 Phosphate (IP1)
Animals used were male Long-Evans rats. They were used after acclimation for at least 1 week. Test compounds were suspended in 0.5% (w/v) aqueous methylcellulose solution, and the suspension was orally administered to the rats. After a given time, lithium chloride was dissolved in saline and subcutaneously administered into the rats. After a given time, their bilateral hippocampi were isolated from the rats, and the wet weight thereof was measured. The isolated hippocampi were homogenized with HEPES buffer, followed by centrifugation. The IP1 and protein concentrations in the supernatant were measured by IP-One HTRF(R) assay kit (Cisbio Bioassays) and BCA protein assay kit (Thermo Scientific), respectively. The level of the IP1 production was expressed as the ratio of the concentration of IP1 to that of protein. The increase rate of the IP1 production was shown as a relative value when Vehicle administration group as 100%.

[2] = tested on: Scopolamine-induced memory deficits models; experiment: Novel object recognition test; format: in vivo, male Long-Evans rats; conditions: 2 hours before acquisition trial, scopolamine 0.1 mg/kg s.c., mean±standard error
Experimental: Novel Object Recognition Test Novel object recognition test is comprised of two trials called the acquisition and the retention trials. Scopolamine-induced memory deficits models were used for the test, and animals used were male Long-Evans rats (7-week-old). On the day before the test, for acclimation, the rats were allowed to freely move about the test box (40×40×50 cm) for 10 minutes. On the test day, the rats were acclimated to the test room for about for 1 hr prior to the test. The test compounds were orally administered to the rats in a single dose 2 hours before the acquisition trial. For induction of learning and memory deficits, scopolamine (0.1 mg/kg) was subcutaneously administered into the rats for 30 min before the acquisition trial. For the acquisition trial, two identical objects (A1, A2) were placed in the test box. The rats were put in the test box for 3 min, and the duration exploring each object was measured. The retention trial was performed for 4 hr after the acquisition trial. For the retention trial, one familiar object (A3) used for the acquisition trial and one novel object (B) having a different shape from A3 were placed in the test box. After setting the objects, the rats were introduced into the test box and retention trial was performed for 3 min. The duration for exploring each object in the acquisition trial and the retention trial was measured, and the exploration rate of novel object was calculated. The exploration rate of novel object was expressed as (the duration exploring the novel object)/[(the duration exploring the novel object)+(the duration exploring the familiar object)]×100(%) at mean±standard error.

| SMILES | activity (%) at 10 μM [1] [%] | increase rate (%) of the IP1 production (IP1 production; 3 mg/kg) [%] | exploration rate of novel object (%) ([2]; 10 mg/kg oral, control group 66.74±3.01%, solvent-scopolamine group 47.48±3.66%) | increase rate (%) of the IP1 production (IP1 production; 10 mg/kg) [%] | exploration rate of novel object (%) ([2]; 3 mg/kg oral, control group 66.74±3.01%, solvent-scopolamine group 47.48±3.66%) | exploration rate of novel object (%) ([2]; 10 mg/kg oral, control group 69.26±2.87%, solvent-scopolamine group 55.27±3.48%) |
| --- | --- | --- | --- | --- | --- | --- |
| Cc1nc(C(=O)N[C@H]2CCCC[C@@H]2O)cc(Cc2ccc(-c3ccn(C)n3)nc2)c1C [Example 74, N-((1S,2S)-2-hydroxycyclohexyl)-5,6-dimethyl-4-((6-(1-methyl-1H-pyrazol-3-yl)pyridin-3-yl)methyl)pyridine-2-carboxamide] | 103 | 22 | 55.14±1.48 | – | – | – |
| Cc1nc(C(=O)N[C@H]2CCC[C@@H]2O)cc(Cc2ccc(-c3ccn(C)n3)cc2)c1C [Example 72, N-((1S,2S)-2-hydroxycyclopentyl)-5,6-dimethyl-4-(4-(1-methyl-1H-pyrazol-3-yl)benzyl)pyridine-2-carboxamide] | 105 | – | – | 70 | 53.16±2.80 | – |
| Cc1cnc(C(=O)N[C@H]2CCC[C@@H]2O)cc1Cc1ccc(-c2ccn(C)n2)cc1 [Example 1, N-((1S,2S)-2-hydroxycyclopentyl)-5-methyl-4-(4-(1-methyl-1H-pyrazol-3-yl)benzyl)pyridine-2-carboxamide] | 86 | – | – | 38 | – | 64.59±2.59 |
